Patent US9522888B2, “Substituted bicyclic compounds” (BRISTOL-MYERS SQUIBB COMPANY, priority 2014, dated 2016)

Columns and labels:
hS1P1/CHO cells = hS1P1/CHO cells (Homo sapiens (Human), UniProt P21453); assay: hS1P1 ERK phosphorylation (S1P1 pERK); type: cell-based; settings: phosphate examples
Outline: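 CHO cells expressing human S1P1, serum-starved 2 h, exposed to compound in HBSS/20 mM HEPES for 7 min at 37° C. Lysates assayed for phospho-ERK by SureFire kit; response given as % activation relative to 10 μM S1P.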

human S1P1 = human S1P1 (Homo sapiens (Human), UniProt P21453); assay: S1P1 binding assay (33P-S1P radioligand competition, CHO cell membranes); settings: phosphate examples; read-out: S1P1 Binding
Chain of human S1P1 (P21453 whole entry): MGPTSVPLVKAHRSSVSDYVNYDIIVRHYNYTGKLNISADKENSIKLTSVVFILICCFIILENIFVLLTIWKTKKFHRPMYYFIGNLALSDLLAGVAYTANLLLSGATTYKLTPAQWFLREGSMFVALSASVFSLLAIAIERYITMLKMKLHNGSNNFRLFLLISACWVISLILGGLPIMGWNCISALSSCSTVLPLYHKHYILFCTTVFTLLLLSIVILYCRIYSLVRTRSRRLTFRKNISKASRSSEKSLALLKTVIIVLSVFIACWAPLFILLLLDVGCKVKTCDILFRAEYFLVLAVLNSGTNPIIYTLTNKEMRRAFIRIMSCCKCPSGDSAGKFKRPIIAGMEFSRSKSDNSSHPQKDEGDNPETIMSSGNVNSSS
Outline: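 Radioligand is 33P-S1P, competing for membranes from human S1P1-expressing CHO cells. Membranes resuspended in 50 mM HEPES pH 7.5, 100 mM NaCl, 1 mM MgCl2, 2 mM EDTA.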

[1] = biological target: S1P1 (membranes prepared from S1P1/CHO cells) (Homo sapiens (Human), UniProt P21453); assay: Receptor [35S] GTPγS binding assay (S1P1 GTPγS); type: biochemical; settings: phosphate examples; read-out: S1P1 GTPγS
Chain of S1P1 (membranes prepared from S1P1/CHO cells) (P21453 whole entry): as above
Outline: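 Membranes from S1P1-expressing CHO cells (3 μg protein/well) incubated with compound (11-point, 3-fold dilution) and 0.2 nM final [35S]GTPγS, 45 min at room temperature. Assay buffer: 20 mM HEPES pH 7.5, 10 mM MgCl2, 150 mM NaCl, 10 μM GDP, 0.1% fatty-acid-free BSA, 10 μg/ml saponin. Filter-bound radioactivity counted by scintillation; EC50 derived.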

[2] = biological target: S1P3 (membranes prepared from EDG3-Gal5-bla HEK293T cells) (Homo sapiens (Human), UniProt Q99500); assay: Receptor [35S] GTPγS binding assay (S1P3 GTPγS); type: biochemical; settings: phosphate examples; read-out: S1P3 GTPγS
Chain of S1P3 (membranes prepared from EDG3-Gal5-bla HEK293T cells) (Q99500 whole entry): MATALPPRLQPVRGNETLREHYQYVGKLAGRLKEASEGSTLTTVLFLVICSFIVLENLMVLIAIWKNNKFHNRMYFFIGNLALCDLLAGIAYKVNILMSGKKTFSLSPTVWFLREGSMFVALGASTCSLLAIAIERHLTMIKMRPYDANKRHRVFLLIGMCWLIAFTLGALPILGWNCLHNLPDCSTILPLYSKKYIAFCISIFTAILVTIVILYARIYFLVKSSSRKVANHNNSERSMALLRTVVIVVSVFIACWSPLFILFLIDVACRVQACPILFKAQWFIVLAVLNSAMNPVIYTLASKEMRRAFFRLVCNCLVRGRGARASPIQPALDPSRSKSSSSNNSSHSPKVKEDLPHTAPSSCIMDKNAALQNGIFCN
Outline: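 Membranes (3 μg protein/well) from S1P1/CHO cells or EDG3-Gal5-bla HEK293T cells (S1P3) were incubated 45 min at room temperature with 0.2 nM final [35S]GTPγS in HEPES pH 7.5 buffer with 10 μM GDP, MgCl2 and saponin. Bound label counted after filtration; EC50 from 11-point, 3-fold dilutions.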

Chain of hS1P1/CHO cells (P21453 whole entry): as the sequence (P21453 whole entry) above

EC50 (hS1P1/CHO cells) [nM] | IC50 (human S1P1) [nM] | EC50 [1] [nM] | EC50 [2] [nM] | Structure (SMILES)
100 to 1000 | 1000 to 10000 | < 10 | > 625 | COCc1cccc(OC[C@@H]2CCc3cc([C@H]4CC[C@](N)(COP(=O)(O)O)C4)ccc3C2)c1 [compound 480]
10 to 100 | 10 to 100 | 100 to 1000 | > 625 | CCCCCC1CCc2cc([C@H]3CC[C@](N)(COP(=O)(O)O)C3)ccc2C1 (stereo partly drawn) [compound 576]
< 10 | < 10 | 10 to 100 | > 625 | N[C@@]1(COP(=O)(O)O)CC[C@@H](c2ccc3c(c2)CC[C@H](OCCOc2ccccc2)C3)C1 (single isomer, unassigned) [compound 582]
< 10 | 10 to 100 | < 10 | > 625 | CCC=CCOC[C@@H]1CCc2cc([C@H]3CC[C@](N)(COP(=O)(O)O)C3)ccc2C1 [compound 456]
10 to 100 | < 10 | < 10 | > 625 | CCCCCCC[C@H]1Cc2ccc([C@H]3CC[C@](N)(COP(=O)(O)O)C3)cc2CO1 [compound 428]
< 10 | 10 to 100 | 10 to 100 | > 625 | CC(C)=CCOC[C@@H]1CCc2cc([C@H]3CC[C@](N)(COP(=O)(O)O)C3)ccc2C1 [compound 453]
10 to 100 | 10 to 100 | 10 to 100 | > 625 | COc1cccc(CCC[C@@H]2CCc3cc([C@H]4CC[C@](N)(COP(=O)(O)O)C4)ccc3C2)c1 [compound 564]
10 to 100 | 10 to 100 | 10 to 100 | > 625 | CCOc1cccc(C[C@@H]2CCc3cc([C@H]4CC[C@](N)(COP(=O)(O)O)C4)ccc3C2)c1 [compound 551]
< 10 | < 10 | 100 to 1000 | > 100 | C=CCOCCC[C@@H]1CCc2cc(C3CCC(N)(COP(=O)(O)O)C3)ccc2C1 (single isomer, unassigned) [compound 601]
< 10 | 10 to 100 | 100 to 1000 | > 625 | CCCCOC[C@H]1CCc2cc([C@H]3CC[C@](N)(COP(=O)(O)O)C3)ccc2C1 [compound 446]
10 to 100 | 100 to 1000 | 100 to 1000 | > 625 | N[C@]1(COP(=O)(O)O)CC[C@@H](c2ccc3c(c2)CC[C@H](CSc2ccccc2)C3)C1 [compound 507]
< 10 | < 10 | 10 to 100 | > 625 | CC(C)CSC[C@@H]1CCc2cc([C@H]3CC[C@](N)(COP(=O)(O)O)C3)ccc2C1 [compound 504]
< 10 | < 10 | 10 to 100 | > 625 | C=CCCCOC[C@@H]1CCc2cc([C@H]3CC[C@](N)(COP(=O)(O)O)C3)ccc2C1 [compound 454]
10 to 100 | 100 to 1000 | 100 to 1000 | > 625 | COc1cccc(F)c1CC[C@H]1CCc2cc([C@@H]3CC[C@@](N)(COP(=O)(O)O)C3)ccc2C1 (single isomer, unassigned) [compound 607]
< 10 | 10 to 100 | 10 to 100 | > 625 | Cc1ccccc1OC[C@@H]1CCc2cc([C@H]3CC[C@](N)(COP(=O)(O)O)C3)ccc2C1 [compound 469]
100 to 1000 | 10 to 100 | 10 to 100 | > 625 | COc1ccc(CC[C@H]2CCc3cc([C@@H]4CC[C@@](N)(COP(=O)(O)O)C4)ccc3C2)cc1 [compound 594]

EC50 (hS1P1/CHO cells) [nM] | IC50 (human S1P1) [nM] | EC50 [1] [nM] | EC50 [2] [nM] | Structure (SMILES)
< 10 | 10 to 100 | 10 to 100 | > 625 | NC1(COP(=O)(O)O)CC[C@H](c2ccc3c(c2)CC[C@@H](c2ccccc2)C3)C1 (single isomer, unassigned) [compound 570]
< 10 | < 10 | < 10 | > 625 | C/C(=N\OCc1ccccc1)[C@@H]1CCc2cc([C@H]3CC[C@](N)(COP(=O)(O)O)C3)ccc2C1 [compound 664]
10 to 100 | 10 to 100 | 10 to 100 | > 625 | CCCCSC[C@H]1CCc2cc([C@@H]3CC[C@](N)(COP(=O)(O)O)C3)ccc2C1 [compound 505]
< 10 | 10 to 100 | 10 to 100 | > 625 | N[C@]1(COP(=O)(O)O)CC[C@H](c2ccc3c(c2)CC[C@@H](CSc2cccnc2)C3)C1 [compound 516]
10 to 100 | < 10 | < 10 | > 625 | N[C@]1(COP(=O)(O)O)CC[C@H](c2ccc3c(c2)CC[C@@H](COCCCC(F)(F)F)C3)C1 [compound 451]
< 10 | 10 to 100 | 10 to 100 | > 625 | CCOc1cccc(C[C@H]2CCc3cc([C@H]4CC[C@](N)(COP(=O)(O)O)C4)ccc3C2)c1 [compound 548]
10 to 100 | 10 to 100 | 10 to 100 | > 625 | Cc1ccc(OC[C@H]2CCc3cc([C@H]4CC[C@](N)(COP(=O)(O)O)C4)ccc3C2)cc1 [compound 466]
< 10 | < 10 | < 10 | > 625 | CCCCCCC1Cc2ccc([C@H]3CC[C@](N)(COP(=O)(O)O)C3)cc2CO1 (stereo partly drawn) [compound 421]
10 to 100 | < 10 | 10 to 100 | > 625 | COc1cccc(/C=C/[C@@H]2CCc3cc([C@H]4CC[C@](N)(COP(=O)(O)O)C4)ccc3C2)c1 [compound 643]
10 to 100 | 10 to 100 | 10 to 100 | > 625 | CC(C)c1cccc(OC[C@@H]2CCc3cc([C@H]4CC[C@](N)(COP(=O)(O)O)C4)ccc3C2)c1 [compound 478]
10 to 100 | 100 to 1000 | 100 to 1000 | > 625 | CC(C)Oc1ccc(C[C@@H]2CCc3cc([C@H]4CC[C@](N)(COP(=O)(O)O)C4)ccc3C2)cc1 [compound 559]
10 to 100 | 10 to 100 | 100 to 1000 | > 625 | COc1cccc(SC[C@@H]2CCc3cc([C@H]4CC[C@](N)(COP(=O)(O)O)C4)ccc3C2)c1 [compound 528]
< 10 | < 10 | 10 to 100 | > 625 | CCc1ccc(COC[C@@H]2CCc3cc([C@H]4CC[C@](N)(COP(=O)(O)O)C4)ccc3C2)s1 [compound 489]
< 10 | 10 to 100 | 10 to 100 | > 625 | CC(C)CSC[C@H]1CCc2cc([C@H]3CC[C@](N)(COP(=O)(O)O)C3)ccc2C1 [compound 509]
10 to 100 | < 10 | < 10 | > 625 | CC(C)(C)CCOC[C@@H]1CCc2cc([C@H]3CC[C@](N)(COP(=O)(O)O)C3)ccc2C1 [compound 464]
1000 to 10000 | < 10 | 10 to 100 | > 625 | CCCCOC[C@@H]1COc2cc([C@H]3CC[C@](N)(COP(=O)(O)O)C3)ccc2O1 [compound 414]

Structure (SMILES) | EC50 (hS1P1/CHO cells) [nM] | IC50 (human S1P1) [nM] | EC50 [1] [nM] | EC50 [2] [nM]
CCCCCOC[C@@H]1COc2cc([C@H]3CC[C@](N)(COP(=O)(O)O)C3)ccc2O1 [Example 412, ((1R,3S)-1-amino-3-((R)-2-((pentyloxy)methyl)-2,3-dihydrobenzo[b][1,4]dioxin-6-yl)cyclopentyl)methyl dihydrogen phosphate] | < 10 | < 10 | < 10 | > 625
